Data: the supplement of paper PMC10307832

Experiments:
Test in all cases: relative viability (nuclei count vs DMSO), 5 days (fraction); higher = more cells survive
H3255 = tested on: H3255
Outline: (§1)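 Five library-drug doses in √10 steps were combined with a fixed anchor-drug dose, or a single drug was given alone, by pin tool to lung cancer cell lines in 1536-well plates the day after seeding. Nuclei were stained and counted after 5 days. Relative viability is the nuclei count in treated wells over that in vehicle wells, taken as the median of duplicate plates.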

LCLC-103H = tested on: LCLC-103H
Outline: as §1

LXF-289 = tested on: LXF-289
Outline: as §1

NCI-H1437 = tested on: NCI-H1437
Outline: as §1

UMC-11 = tested on: UMC-11
Outline: as §1

PC-3 [JPC-3] = tested on: PC-3 [JPC-3]
Outline: as §1

HCC-15 = tested on: HCC-15
Outline: as §1

NCI-H661 = tested on: NCI-H661
Outline: as §1

ABC-1 = tested on: ABC-1
Outline: as §1

NCI-H2009 = tested on: NCI-H2009
Outline: as §1

SK-MES-1 = tested on: SK-MES-1
Outline: as §1

NCI-H23 = tested on: NCI-H23
Outline: as §1

LC-2-ad = tested on: LC-2-ad
Outline: as §1

HCC-827 = tested on: HCC-827
Outline: as §1

NCI-H2342 = tested on: NCI-H2342
Outline: as §1

NCI-H2085 = tested on: NCI-H2085
Outline: as §1

PC-14 = tested on: PC-14
Outline: as §1

NCI-H1666 = tested on: NCI-H1666
Outline: as §1

NCI-H1975 = tested on: NCI-H1975
Outline: as §1

NCI-H2087 = tested on: NCI-H2087
Outline: as §1

COR-L23 = tested on: COR-L23
Outline: as §1

HCC-366 = tested on: HCC-366
Outline: as §1

CN1CCN(CCOc2cc(OC3CCOCC3)c3c(Nc4c(Cl)ccc5c4OCO5)ncnc3c2)CC1 [Saracatinib] + Nc1ncn([C@H]2C[C@H](O)[C@@H](CO)O2)c(=O)n1 [Decitabine] (partner 2 µM)
relative viability (H3255; first compound 0.02 µM): 0.605 | relative viability (H3255; first compound 0.2 µM): 0.587 | relative viability (H3255; first compound 0.6325 µM): 0.579 | relative viability (H3255; first compound 2 µM): 0.209 | relative viability (LCLC-103H; first compound 0.02 µM): 0.774 | relative viability (LCLC-103H; first compound 0.2 µM): 0.653 | relative viability (LCLC-103H; first compound 0.6325 µM): 0.72 | relative viability (LCLC-103H; first compound 2 µM): 0.716 | relative viability (LXF-289; first compound 0.02 µM): 0.327 | relative viability (LXF-289; first compound 0.2 µM): 0.314 | relative viability (LXF-289; first compound 0.6325 µM): 0.387 | relative viability (LXF-289; first compound 2 µM): 0.36 | relative viability (NCI-H1437; first compound 0.02 µM): 0.608 | relative viability (NCI-H1437; first compound 0.2 µM): 0.601 | relative viability (NCI-H1437; first compound 0.6325 µM): 0.64 | relative viability (NCI-H1437; first compound 2 µM): 0.622 | relative viability (UMC-11; first compound 0.02 µM): 0.686 | relative viability (UMC-11; first compound 0.2 µM): 0.667 | relative viability (UMC-11; first compound 0.6325 µM): 0.453 | relative viability (UMC-11; first compound 2 µM): 0.533 | relative viability (PC-3 [JPC-3]; first compound 0.02 µM): 0.824 | relative viability (PC-3 [JPC-3]; first compound 0.2 µM): 0.711 | relative viability (PC-3 [JPC-3]; first compound 0.6325 µM): 0.695 | relative viability (PC-3 [JPC-3]; first compound 2 µM): 0.555 | relative viability (HCC-15; first compound 0.02 µM): 0.73 | relative viability (HCC-15; first compound 0.2 µM): 0.62 | relative viability (HCC-15; first compound 0.6325 µM): 0.605 | relative viability (HCC-15; first compound 2 µM): 0.557 | relative viability (NCI-H661; first compound 0.02 µM): 0.563 | relative viability (NCI-H661; first compound 0.2 µM): 0.434 | relative viability (NCI-H661; first compound 0.6325 µM): 0.534 | relative viability (NCI-H661; first compound 2 µM): 0.403 | relative viability (ABC-1; first compound 0.02 µM): 1.01 | relative viability (ABC-1; first compound 0.2 µM): 1.04 | relative viability (ABC-1; first compound 0.6325 µM): 1.06 | relative viability (ABC-1; first compound 2 µM): 1.02 | relative viability (NCI-H2009; first compound 0.02 µM): 0.406 | relative viability (NCI-H2009; first compound 0.2 µM): 0.35 | relative viability (NCI-H2009; first compound 0.6325 µM): 0.35 | relative viability (NCI-H2009; first compound 2 µM): 0.322 | relative viability (SK-MES-1; first compound 0.02 µM): 0.353 | relative viability (SK-MES-1; first compound 0.2 µM): 0.352 | relative viability (SK-MES-1; first compound 0.6325 µM): 0.36 | relative viability (SK-MES-1; first compound 2 µM): 0.203 | relative viability (NCI-H23; first compound 0.02 µM): 0.208 | relative viability (NCI-H23; first compound 0.6325 µM): 0.29 | relative viability (NCI-H23; first compound 2 µM): 0.212 | relative viability (LC-2-ad; first compound 0.02 µM): 0.79 | relative viability (LC-2-ad; first compound 0.2 µM): 0.751 | relative viability (LC-2-ad; first compound 0.6325 µM): 0.779 | relative viability (LC-2-ad; first compound 2 µM): 0.789 | relative viability (HCC-827; first compound 0.02 µM): 0.359 | relative viability (HCC-827; first compound 0.2 µM): 0.225 | relative viability (HCC-827; first compound 0.6325 µM): 0.19 | relative viability (HCC-827; first compound 2 µM): 0.151 | relative viability (NCI-H2342; first compound 0.02 µM): 0.791 | relative viability (NCI-H2342; first compound 0.2 µM): 0.677 | relative viability (NCI-H2342; first compound 0.6325 µM): 0.673 | relative viability (NCI-H2342; first compound 2 µM): 0.656 | relative viability (NCI-H2085; first compound 0.02 µM): 0.531 | relative viability (NCI-H2085; first compound 0.2 µM): 0.478 | relative viability (NCI-H2085; first compound 0.6325 µM): 0.602 | relative viability (NCI-H2085; first compound 2 µM): 0.469 | relative viability (PC-14; first compound 0.02 µM): 0.219 | relative viability (PC-14; first compound 0.2 µM): 0.182 | relative viability (PC-14; first compound 0.6325 µM): 0.158 | relative viability (PC-14; first compound 2 µM): 0.118 | relative viability (NCI-H1666; first compound 0.02 µM): 0.797 | relative viability (NCI-H1666; first compound 0.2 µM): 0.671 | relative viability (NCI-H1666; first compound 0.6325 µM): 0.846 | relative viability (NCI-H1666; first compound 2 µM): 0.756 | relative viability (NCI-H1975; first compound 0.02 µM): 0.45 | relative viability (NCI-H1975; first compound 0.2 µM): 0.37 | relative viability (NCI-H1975; first compound 0.6325 µM): 0.386 | relative viability (NCI-H1975; first compound 2 µM): 0.338 | relative viability (NCI-H2087; first compound 0.02 µM): 0.322 | relative viability (NCI-H2087; first compound 0.2 µM): 0.226 | relative viability (NCI-H2087; first compound 0.6325 µM): 0.27 | relative viability (NCI-H2087; first compound 2 µM): 0.293 | relative viability (COR-L23; first compound 0.02 µM): 0.44 | relative viability (COR-L23; first compound 0.2 µM): 0.385 | relative viability (COR-L23; first compound 0.6325 µM): 0.419 | relative viability (COR-L23; first compound 2 µM): 0.335 | relative viability (HCC-366; first compound 0.02 µM): 0.321 | relative viability (HCC-366; first compound 0.2 µM): 0.148 | relative viability (HCC-366; first compound 0.6325 µM): 0.293 | relative viability (HCC-366; first compound 2 µM): 0.194
